Laboratory results from article PMC12163657 (ACS Omega, 2025).

How the values were obtained:
ERβ = ERβ (Homo sapiens, UniProt Q92731); experiment: Reporter assay of gene transcription activity, ERβ; format: cell-based
GR = target: T1, GR (Homo sapiens, UniProt P04150); experiment: Reporter assay of gene transcription activity, GR; format: cell-based
T1 sequence (P04150 1-777): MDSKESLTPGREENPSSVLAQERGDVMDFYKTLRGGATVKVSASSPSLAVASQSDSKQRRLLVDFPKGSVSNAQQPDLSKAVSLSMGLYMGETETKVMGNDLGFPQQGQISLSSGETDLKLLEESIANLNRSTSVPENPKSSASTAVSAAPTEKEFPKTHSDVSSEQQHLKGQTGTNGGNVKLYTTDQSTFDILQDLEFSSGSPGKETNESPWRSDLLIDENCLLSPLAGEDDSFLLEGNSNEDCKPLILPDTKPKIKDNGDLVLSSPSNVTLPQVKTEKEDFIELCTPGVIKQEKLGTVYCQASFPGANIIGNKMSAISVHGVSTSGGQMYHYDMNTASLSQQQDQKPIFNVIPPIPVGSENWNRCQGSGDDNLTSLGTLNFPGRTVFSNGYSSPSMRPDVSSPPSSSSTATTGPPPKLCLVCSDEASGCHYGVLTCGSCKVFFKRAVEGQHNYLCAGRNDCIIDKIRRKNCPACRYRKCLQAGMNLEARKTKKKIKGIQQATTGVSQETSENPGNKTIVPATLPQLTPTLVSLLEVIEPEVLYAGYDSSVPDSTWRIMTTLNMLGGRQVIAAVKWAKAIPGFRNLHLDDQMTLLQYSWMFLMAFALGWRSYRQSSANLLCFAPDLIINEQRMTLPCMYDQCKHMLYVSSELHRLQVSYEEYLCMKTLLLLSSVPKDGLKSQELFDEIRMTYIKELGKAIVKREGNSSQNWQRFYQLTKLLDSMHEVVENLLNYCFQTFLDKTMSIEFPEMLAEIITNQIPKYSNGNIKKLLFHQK

AR = target: T2, AR (Homo sapiens, UniProt P10275); experiment: Reporter assay of gene transcription activity, AR; format: cell-based; conditions: for IC50: reporter assay
T2 sequence (P10275 1-920): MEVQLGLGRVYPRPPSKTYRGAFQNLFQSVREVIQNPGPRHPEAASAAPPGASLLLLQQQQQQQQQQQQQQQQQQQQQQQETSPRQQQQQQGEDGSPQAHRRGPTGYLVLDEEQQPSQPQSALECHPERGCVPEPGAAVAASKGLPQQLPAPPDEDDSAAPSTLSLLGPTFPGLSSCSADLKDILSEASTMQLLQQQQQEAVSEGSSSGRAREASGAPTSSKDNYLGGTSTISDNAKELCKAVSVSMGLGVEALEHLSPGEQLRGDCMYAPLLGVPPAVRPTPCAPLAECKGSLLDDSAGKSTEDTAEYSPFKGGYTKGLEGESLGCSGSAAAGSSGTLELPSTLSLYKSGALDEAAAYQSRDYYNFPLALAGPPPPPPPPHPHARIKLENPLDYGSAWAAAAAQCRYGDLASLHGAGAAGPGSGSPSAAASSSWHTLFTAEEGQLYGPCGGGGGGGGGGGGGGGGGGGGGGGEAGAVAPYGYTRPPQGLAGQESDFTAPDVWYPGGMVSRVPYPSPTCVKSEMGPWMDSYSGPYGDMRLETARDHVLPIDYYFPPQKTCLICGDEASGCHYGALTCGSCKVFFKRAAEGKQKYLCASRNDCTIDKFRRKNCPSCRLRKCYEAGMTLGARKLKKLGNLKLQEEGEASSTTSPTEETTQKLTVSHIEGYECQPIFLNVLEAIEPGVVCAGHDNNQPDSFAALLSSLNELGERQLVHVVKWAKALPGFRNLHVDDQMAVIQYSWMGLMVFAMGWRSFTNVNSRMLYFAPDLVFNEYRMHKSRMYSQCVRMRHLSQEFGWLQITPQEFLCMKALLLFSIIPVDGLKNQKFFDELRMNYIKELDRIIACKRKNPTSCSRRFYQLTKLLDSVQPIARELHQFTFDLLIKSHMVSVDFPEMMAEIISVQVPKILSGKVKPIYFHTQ

ESR1 Asp538Gly = target: T3, ESR1 Asp538Gly (Homo sapiens, UniProt P03372, D538G); experiment: AP; format: cell-based
T3 sequence (P03372 1-595 D538G): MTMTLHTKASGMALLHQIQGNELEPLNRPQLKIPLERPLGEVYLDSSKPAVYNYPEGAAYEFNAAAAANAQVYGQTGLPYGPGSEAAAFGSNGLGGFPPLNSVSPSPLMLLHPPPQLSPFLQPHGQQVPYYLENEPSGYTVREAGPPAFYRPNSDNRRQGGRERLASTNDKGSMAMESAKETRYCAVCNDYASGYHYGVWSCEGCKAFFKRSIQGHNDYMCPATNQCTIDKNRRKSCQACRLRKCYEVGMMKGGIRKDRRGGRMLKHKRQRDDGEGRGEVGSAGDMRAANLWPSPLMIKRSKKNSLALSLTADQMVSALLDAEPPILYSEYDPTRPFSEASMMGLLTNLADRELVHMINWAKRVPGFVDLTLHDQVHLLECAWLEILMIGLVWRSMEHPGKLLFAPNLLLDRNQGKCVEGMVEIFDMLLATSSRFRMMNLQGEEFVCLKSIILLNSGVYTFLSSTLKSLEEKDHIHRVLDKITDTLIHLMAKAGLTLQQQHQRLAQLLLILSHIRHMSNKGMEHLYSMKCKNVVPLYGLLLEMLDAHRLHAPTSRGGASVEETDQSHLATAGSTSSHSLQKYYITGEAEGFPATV

[1] = tested on: CAMA-1 ESR1 Asp538Gly cells; experiment: CAMA-1 cell proliferation, ESR1 Asp538Gly; format: cell-based; conditions: Homo sapiens, CAMA-1, read-out: CAMA-1 cell prolif. pIC50 (converted)
[2] = Single-dose pharmacokinetics, mouse; format: in vivo; conditions: serum
[3] = Single-dose pharmacokinetics, monkey; format: in vivo; conditions: serum

Chain of ERβ (Q92731 whole entry, species assumed): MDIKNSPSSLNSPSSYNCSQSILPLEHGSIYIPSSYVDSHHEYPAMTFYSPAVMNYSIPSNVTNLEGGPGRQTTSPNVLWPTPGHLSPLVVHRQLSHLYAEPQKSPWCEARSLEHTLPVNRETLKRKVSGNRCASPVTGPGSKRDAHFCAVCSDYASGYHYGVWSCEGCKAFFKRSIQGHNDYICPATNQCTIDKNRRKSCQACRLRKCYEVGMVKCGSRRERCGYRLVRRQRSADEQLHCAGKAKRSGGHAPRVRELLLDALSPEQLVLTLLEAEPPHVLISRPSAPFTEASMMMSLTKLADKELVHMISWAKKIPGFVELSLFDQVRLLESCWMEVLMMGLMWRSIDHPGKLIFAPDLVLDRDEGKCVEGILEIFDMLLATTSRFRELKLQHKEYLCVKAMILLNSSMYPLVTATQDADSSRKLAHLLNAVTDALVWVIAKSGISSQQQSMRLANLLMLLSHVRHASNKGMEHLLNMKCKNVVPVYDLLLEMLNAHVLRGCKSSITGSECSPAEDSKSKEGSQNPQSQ

CCCN1CC(Oc2ccc([C@@H]3c4[nH]c5ccccc5c4C[C@@H](C)N3CC(C)(C)F)cc2)C1 [compound 21, (1R,3R)-2-(2-Fluoro-2-methylpropyl)-3-methyl-1-(4-((1-propylazetidin-3-yl)oxy)phenyl)-2,3,4,9-tetrahydro-1H-pyrido[3,4-b]indole]
IC50 (ERβ; Erβ pIC50, agonist mode, agonist mode): > 3.16 µM
IC50 (ERβ; Erβ pIC50, antag. mode, antag. mode): 0.00316 µM
IC50 (GR): > 3.16 µM
agonist cross-reactivity on GR (GR; in words): no agonist cross-reactivity
GR pIC50, antag. mode (GR; reporter assay, antag. mode): <5.5
IC50 (AR; AR pIC50, agonist mode, agonist mode): > 3.16 µM
IC50 (AR; AR pIC50, antag. mode, antag. mode (agonist-induced activity)): 1.58 µM
agonist cross-reactivity on AR (AR; in words): no agonist cross-reactivity
IC50 (ESR1 Asp538Gly): 0.0316 µM
IC50 [1]: 0.00631 µM
AUC ([2]; iv, 0.5 mg/kg): 161 ng·h/mL
Cmax ([2]; iv, 0.5 mg/kg): 29 ng/mL
Vd ([2]; iv, 0.5 mg/kg): 27 L/kg
clearance ([2]; iv, 0.5 mg/kg): 51.7 mL/min/kg
half-life ([2]; iv, 0.5 mg/kg): 7 h
AUC ([2]; po, 5 mg/kg): 1030 ng·h/mL
Cmax ([2]; po, 5 mg/kg): 91 ng/mL
Tmax ([2]; po, 5 mg/kg): 1 h
bioavailability ([2]; po, 5 mg/kg): 72%
half-life ([2]; po, 5 mg/kg): 10 h
AUC ([3]; iv, 3 mg/kg): 3420 ng·h/mL
Cmax ([3]; iv, 3 mg/kg): 651 ng/mL
Vd ([3]; iv, 3 mg/kg): 49 L/kg
clearance ([3]; iv, 3 mg/kg): 13.3 mL/min/kg
half-life ([3]; iv, 3 mg/kg): 42 h
AUC ([3]; po, 10 mg/kg): 5090 ng·h/mL
Cmax ([3]; po, 10 mg/kg): 170 ng/mL
Tmax ([3]; po, 10 mg/kg): 8 h
bioavailability ([3]; po, 10 mg/kg): 44.4%
half-life ([3]; po, 10 mg/kg): 34 h
